Experimental data published in US8609672B2, “Piperazinylpyrimidine analogues as protein kinase inhibitors” (University of the Pacific, priority 2010, dated 2013).

Tests used:
[1] = tested on: K-562; assay: NCI-60 SRB growth inhibition: K-562; type: cell-based, human; conditions: K-562, Leukemia, 48 hours treatment; for CC50: Homo sapiens, K562, read-out: LC50 (the source's name)
[2] = tested on: A549/ATCC; assay: NCI-60 SRB growth inhibition: A549/ATCC; type: cell-based, human; conditions: Non-small cell lung cancer, 48 hours treatment; for CC50: Homo sapiens, read-out: LC50 (the source's name)
[3] = tested on: EKVX; assay: NCI-60 SRB growth inhibition: EKVX; type: cell-based, human; conditions: Non-small cell lung cancer, 48 hours treatment; for CC50: Homo sapiens, read-out: LC50 (the source's name)
[4] = tested on: NCI-H23; assay: NCI-60 SRB growth inhibition: NCI-H23; type: cell-based, human; conditions: NCI-H23, Non-small cell lung cancer; 48 hours treatment
[5] = tested on: NCI-H322M; assay: NCI-60 SRB growth inhibition: NCI-H322M; type: cell-based, human; conditions: Non-small cell lung cancer, 48 hours treatment
[6] = tested on: NCI-H460; assay: NCI-60 SRB growth inhibition: NCI-H460; type: cell-based, human; conditions: NCI-H460, Non-small cell lung cancer, 48 hours treatment; for CC50: Homo sapiens, read-out: LC50 (the source's name)
[7] = tested on: NCI-H522; assay: NCI-60 SRB growth inhibition: NCI-H522; type: cell-based, human; conditions: NCI-H522, Non-small cell lung cancer; 48 hours treatment
[8] = tested on: HCC-2998; assay: NCI-60 SRB growth inhibition: HCC-2998; type: cell-based, human; conditions: HCC-2998, Colon cancer; 48 hours treatment
[9] = tested on: HCT-116; assay: NCI-60 SRB growth inhibition: HCT-116; type: cell-based; conditions: HCT-116, Colon cancer; 48 hours treatment
[10] = tested on: HCT-15; assay: NCI-60 SRB growth inhibition: HCT-15; type: cell-based, human; conditions: HCT-15, Colon cancer; 48 hours treatment
[11] = tested on: KM12; assay: NCI-60 SRB growth inhibition: KM12; type: cell-based, human; conditions: KM12, Colon cancer, 48 hours treatment; for CC50: Homo sapiens, read-out: LC50 (the source's name)
[12] = tested on: SW-620; assay: NCI-60 SRB growth inhibition: SW-620; type: cell-based, human; conditions: SW-620, Colon cancer, 48 hours treatment; for CC50: Homo sapiens, read-out: LC50 (the source's name)
[13] = tested on: SF-295; assay: NCI-60 SRB growth inhibition: SF-295; type: cell-based, human; conditions: for CC50: Homo sapiens, SF-295, 48 h, read-out: LC50 (the source's name); for TGI: SF-295, CNS cancer, 48 hours treatment
[14] = tested on: SNB-19; assay: NCI-60 SRB growth inhibition: SNB-19; type: cell-based, human; conditions: SNB-19, CNS cancer, 48 hours treatment; for CC50: Homo sapiens, read-out: LC50 (the source's name)
[15] = tested on: LOX 1MVI; assay: NCI-60 SRB growth inhibition: LOX 1MVI; type: cell-based, human; conditions: Melanoma, 48 hours treatment
[16] = tested on: SK-MEL-2; assay: NCI-60 SRB growth inhibition: SK-MEL-2; type: cell-based, human; conditions: SK-MEL-2, Melanoma; 48 hours treatment
[17] = tested on: SK-MEL-5; assay: NCI-60 SRB growth inhibition: SK-MEL-5; type: cell-based, human; conditions: SK-MEL-5, Melanoma; 48 hours treatment
[18] = tested on: UACC-257; assay: NCI-60 SRB growth inhibition: UACC-257; type: cell-based, human; conditions: for CC50: Homo sapiens, UACC-257, 48 h, read-out: LC50 (the source's name); for TGI: UACC-257, Melanoma, 48 hours treatment
[19] = tested on: OVCAR-3; assay: NCI-60 SRB growth inhibition: OVCAR-3; type: cell-based, human; conditions: OVCAR-3, Ovarian cancer; 48 hours treatment
[20] = tested on: OVCAR-5; assay: NCI-60 SRB growth inhibition: OVCAR-5; type: cell-based, human; conditions: OVCAR-5, Ovarian cancer, 48 hours treatment; for CC50: Homo sapiens, read-out: LC50 (the source's name)
[21] = tested on: OVCAR-8; assay: NCI-60 SRB growth inhibition: OVCAR-8; type: cell-based, human; conditions: OVCAR-8, Ovarian cancer, 48 hours treatment; for CC50: Homo sapiens, read-out: LC50 (the source's name)
[22] = tested on: 786-0; assay: NCI-60 SRB growth inhibition: 786-0; type: cell-based, human; conditions: 786-0, Renal cancer; 48 hours treatment
[23] = tested on: ACHN; assay: NCI-60 SRB growth inhibition: ACHN; type: cell-based, human; conditions: Renal cancer, 48 hours treatment; for CC50: Homo sapiens, read-out: LC50 (the source's name)
[24] = tested on: CAKI-1; assay: NCI-60 SRB growth inhibition: CAKI-1; type: cell-based, human; conditions: CAKI-1, Renal cancer; 48 hours treatment
[25] = tested on: RXF 393; assay: NCI-60 SRB growth inhibition: RXF 393; type: cell-based, human; conditions: RXF 393, Renal cancer, 48 hours treatment; for CC50: Homo sapiens, read-out: LC50 (the source's name)
[26] = tested on: SN12C; assay: NCI-60 SRB growth inhibition: SN12C; type: cell-based, human; conditions: Renal cancer, 48 hours treatment; for CC50: Homo sapiens, read-out: LC50 (the source's name)
[27] = tested on: TK-10; assay: NCI-60 SRB growth inhibition: TK-10; type: cell-based, human; conditions: TK-10, Renal cancer, 48 hours treatment; for CC50: Homo sapiens, read-out: LC50 (the source's name)
[28] = tested on: UO-31; assay: NCI-60 SRB growth inhibition: UO-31; type: cell-based, human; conditions: UO-31, Renal cancer; 48 hours treatment
[29] = tested on: DU-145; assay: NCI-60 SRB growth inhibition: DU-145; type: cell-based, human; conditions: for TGI: DU-145, Prostate cancer, 48 hours treatment; for CC50: Homo sapiens, DU-145, 48 h, read-out: LC50 (the source's name)
[30] = tested on: MCF7; assay: NCI-60 SRB growth inhibition: MCF7; type: cell-based, human; conditions: MCF7, Breast cancer; 48 hours treatment
[31] = tested on: HS 578T; assay: NCI-60 SRB growth inhibition: HS 578T; type: cell-based, human; conditions: Breast cancer, 48 hours treatment; for CC50: Homo sapiens, read-out: LC50 (the source's name)
[32] = tested on: BT-549; assay: NCI-60 SRB growth inhibition: BT-549; type: cell-based, human; conditions: for TGI: BT-549, Breast cancer, 48 hours treatment; for CC50: Homo sapiens, BT-549, 48 h, read-out: LC50 (the source's name)
[33] = tested on: MDA-MB-468; assay: NCI-60 SRB growth inhibition: MDA-MB-468; type: cell-based, human; conditions: MDA-MB-468, Breast cancer, 48 hours treatment; for CC50: Homo sapiens, read-out: LC50 (the source's name)

Compound: c1ccc(Cc2cnc(N3CCN(c4ncnc5ccccc45)CC3)nc2)cc1 [Compound 4, 4-(4-(5-benzylpyrimidin-2-yl)piperazin-1-yl)quinazoline]
- CC50 [1]: > 100 µM
- TGI [1]: >100 µM
- CC50 [2]: > 100 µM
- TGI [2]: 35.70 µM
- CC50 [3]: > 100 µM
- TGI [3]: 33.10 µM
- TGI [4]: 30.80 µM
- TGI [5]: >100 µM
- CC50 [6]: 55 µM
- TGI [6]: 23.70 µM
- TGI [7]: 40.30 µM
- TGI [8]: 60.90 µM
- TGI [9]: 13.20 µM
- TGI [10]: 63.20 µM
- CC50 [11]: 50.1 µM
- TGI [11]: 25.10 µM
- CC50 [12]: 59.9 µM
- TGI [12]: 27.70 µM
- CC50 [13]: > 100 µM
- TGI [13]: 26.00 µM
- CC50 [14]: > 100 µM
- TGI [14]: >100 µM
- TGI [15]: 19.60 µM
- TGI [16]: 35.80 µM
- TGI [17]: 13.90 µM
- CC50 [18]: 41.4 µM
- TGI [18]: 16.80 µM
- TGI [19]: 23.20 µM
- CC50 [20]: > 100 µM
- TGI [20]: 69.80 µM
- CC50 [21]: 71.3 µM
- TGI [21]: 25.60 µM
- TGI [22]: 36.70 µM
- CC50 [23]: > 100 µM
- TGI [23]: 42.40 µM
- TGI [24]: 39.30 µM
- CC50 [25]: > 100 µM
- TGI [25]: 57.90 µM
- CC50 [26]: 54.8 µM
- TGI [26]: 24.40 µM
- CC50 [27]: > 100 µM
- TGI [27]: 60.80 µM
- TGI [28]: 38.40 µM
- TGI [29]: 30.70 µM
- CC50 [29]: 79.8 µM
- TGI [30]: 58.20 µM
- TGI [31]: 54.80 µM
- CC50 [31]: > 100 µM
- TGI [32]: 18.40 µM
- CC50 [32]: 43 µM
- CC50 [33]: > 100 µM
- TGI [33]: 2.73 µM

Compound: CCc1cnc(N2CCN(C(=O)c3ccc(CNc4ncnc5ccccc45)cc3)CC2)nc1 [Compound 15, (4-(5-ethylpyrimidin-2-yl)piperazin-1-yl)(4-((quinazolin-4-ylamino)methyl)phenyl)methanone]
- CC50 [1]: > 100 µM
- TGI [1]: >100 µM
- CC50 [2]: > 100 µM
- TGI [2]: >100 µM
- CC50 [3]: > 100 µM
- TGI [3]: 61.40 µM
- TGI [4]: 33.30 µM
- TGI [5]: >100 µM
- CC50 [6]: > 100 µM
- TGI [6]: 30.70 µM
- TGI [7]: 55.40 µM
- TGI [8]: 48.90 µM
- TGI [9]: 25.00 µM
- TGI [10]: >100 µM
- CC50 [11]: 53.8 µM
- TGI [11]: 24.30 µM
- CC50 [12]: > 100 µM
- TGI [12]: 45.10 µM
- CC50 [13]: > 100 µM
- TGI [13]: 23.10 µM
- CC50 [14]: > 100 µM
- TGI [14]: >100 µM
- TGI [15]: 28.70 µM
- TGI [16]: >100 µM
- TGI [17]: 2.90 µM
- CC50 [18]: > 100 µM
- TGI [18]: 26.80 µM
- TGI [19]: >100 µM
- CC50 [20]: > 100 µM
- TGI [20]: >100 µM
- CC50 [21]: > 100 µM
- TGI [21]: >100 µM
- TGI [22]: 54.80 µM
- CC50 [23]: > 100 µM
- TGI [23]: 82.50 µM
- TGI [24]: 94.80 µM
- CC50 [25]: > 100 µM
- TGI [25]: 41.60 µM
- CC50 [26]: > 100 µM
- TGI [26]: 59.00 µM
- CC50 [27]: > 100 µM
- TGI [27]: >100 µM
- TGI [28]: 60.50 µM
- TGI [29]: >100 µM
- CC50 [29]: > 100 µM
- TGI [30]: 72.80 µM
- TGI [31]: >100 µM
- CC50 [31]: > 100 µM
- TGI [32]: 10.70 µM
- CC50 [32]: > 100 µM
- CC50 [33]: > 100 µM
- TGI [33]: 2.22 µM

Compound: O=C(c1cccc(Nc2ncnc3ccccc23)c1)N1CCN(c2ncc(Cc3ccccc3)cn2)CC1 [Compound 16, (4-(5-benzylpyrimidin-2-yl)piperazin-1-yl)(3-(quinazolin-4-ylamino)phenyl)methanone]
- CC50 [1]: > 100 µM
- TGI [1]: 2.23 µM
- CC50 [2]: 8.13 µM
- TGI [2]: 3.09 µM
- CC50 [3]: > 100 µM
- TGI [3]: 4.90 µM
- TGI [4]: 2.69 µM
- TGI [5]: 4.79 µM
- CC50 [6]: > 100 µM
- TGI [6]: 4.27 µM
- TGI [7]: 2.09 µM
- TGI [8]: 3.98 µM
- TGI [9]: 3.55 µM
- TGI [10]: 3.55 µM
- CC50 [11]: 6.61 µM
- TGI [11]: 2.40 µM
- CC50 [12]: > 100 µM
- TGI [12]: 4.27 µM
- CC50 [13]: > 100 µM
- TGI [13]: 2.24 µM
- CC50 [14]: > 100 µM
- TGI [14]: 8.91 µM
- TGI [15]: 2.45 µM
- TGI [16]: 2.69 µM
- TGI [17]: 1.20 µM
- CC50 [18]: 5.37 µM
- TGI [18]: 2.63 µM
- TGI [19]: 8.13 µM
- CC50 [20]: > 100 µM
- TGI [20]: 5.75 µM
- CC50 [21]: > 100 µM
- TGI [21]: 3.31 µM
- TGI [22]: 6.61 µM
- CC50 [23]: > 100 µM
- TGI [23]: 4.57 µM
- TGI [24]: 1.91 µM
- CC50 [25]: > 100 µM
- TGI [25]: 11.48 µM
- CC50 [26]: > 100 µM
- TGI [26]: 7.08 µM
- CC50 [27]: 39.8 µM
- TGI [27]: 6.17 µM
- TGI [28]: 1.82 µM
- TGI [29]: 6.46 µM
- CC50 [29]: > 100 µM
- TGI [30]: 2.29 µM
- TGI [31]: 7.41 µM
- CC50 [31]: > 100 µM
- TGI [32]: 1.74 µM
- CC50 [32]: 5.37 µM
- CC50 [33]: > 100 µM
- TGI [33]: 3.47 µM
